Consider five compounds from patent US11510993B2, “Antibody drug conjugate for anti-inflammatory applications” (Merck Sharp & Dohme Corp., priority 2015, dated 2022).

Series [1] concerns GILZ mRNA in HUT-78 cells (CD74 positive T lymphoma). Description: GILZ mRNA induction in HUT-78 cells (RT-PCR). To be noted: 18 hours; for Emax: GILZ mRNA relative fold of change; for EC50: Homo sapiens, HuT78, GILZ mRNA, free drug. It counts as cell-based, human. As to the method: (§1) In vitro activity and targeted delivery of ADC 12-4, 12-5, 12-6, 12-7, 12-9, 12-10, the isotype-matched negative controls 12-11, 12-12, and naked anti-hCD74 (LL1) control were assessed in HUT-78 an SUDHL-6 cells (CD74 positive T and B lymphoma cell lines respectively) as well as 786-O cells (a CD74 negative renal carcinoma cell line). The cells were treated with individual ADC, anti-hCD74 antibody, or budesonide (Bud) for 18 hours and then glucocorticoid-induced leucine zipper (GILZ) mRNA, a glucocorticoid-regulated gene, was measured by RT-PCR. […] (The activity at the highest concentration in 786-O cells may be due to impurity of the sample or possible low CD74 expression in cells.). The overall activity profile of the ADC is consistent with targeted delivery of a payload (e.g. dexamethasone or budesonide) that is dependent on the binding and internalization of the antibody with its antigen on the cell surface, and on the efficiency of linker cleavage inside the cells.
(§2) The quantitation of Glucocorticoid-induced leucine zipper (GILZ) mRNA expression was determined by real time-PCR. In brief, actively growing cells were harvested and then resuspended in the assay buffer (HBSS plus 2% FBS) at concentration of 1.1×10^6/ml. 5×10^4 cells/well in 45 μl volume were plated to Greiner 384 well v-bottom reagent plates (Ref #781280). […] After 18 hour incubation, the cells were lysed, and the lysates were used for cDNA synthesis and real-time PCR, according to manufacturer's instructions in TaqMan Gene Expression Cells-to-CT™ Kit (Invitrogen, Carlsbad, Calif.). Specific primers against human GILZ and GAPDH were purchased from the Life Technologies (Invitrogen, Carlsbad, Calif.). Real-time PCR reactions were performed on the Applied Biosystems 7900 HT Fast Real-Time PCR System. Thermal cycling conditions consisted of an initial UDG incubation hold (50° C., 2 min) denaturing and enzyme activation step (95° C., 2 min) followed by 40 cycles of denaturing (95° C., 15 s), annealing and extending (60° C., 1 min). The mRNA levels were normalized to GAPDH (internal control) using the formula Δ threshold cycle (CT)=CT target−CT reference. The differential expression signal were expressed as delta Ct (ΔCt) by subtracting the Ct values of the un-stimulated samples (containing only assay buffer or DMSO vehicle) from those of the stimulated samples and expressed as relative fold of change using the formula: 2^ΔΔCT. The graphs were generated in GraphPad Prism and the EC50 values were calculated with non-linear regression curve fit of the data in GraphPad Prism.

Series [2] deals with GILZ mRNA in SUDHL-6 cells (CD74 positive B lymphoma). Description: GILZ mRNA induction in SUDHL-6 cells (RT-PCR). It counts as cell-based, human. To be noted: 18 hours; for Emax: GILZ mRNA relative fold of change; for EC50: Homo sapiens, SU-DHL-6, GILZ mRNA, free drug. As to the method: as §1, §2
In series [3] the test system is GILZ mRNA in 786-O cells (CD74 negative renal carcinoma). Description: GILZ mRNA induction in 786-O cells (RT-PCR). It counts as cell-based, human. To be noted: 786-0 cells (CD74(—)), 18 hours; for Emax: GILZ mRNA relative fold of change; for EC50: Homo sapiens, GILZ mRNA, free drug. The protocol: as §1, §2
A short description of series [4]: In vitro stability of drug-linkers in rat liver lysosomal lysate (parent and released dexamethasone, LC-MS/MS).
Procedure: Rat Liver lysosomes were available commercially with a pool of 6 animals. All linker compounds were solubilized in DMSO to form each 10 mM stock solution. Dosing solution for each linker was prepared by serial dilution of each stock solution using 1:3 acetonitrile: water. All solutions were kept on ice during the experiment.
Rat lysosomes were pre-warmed in a 37° C. water bath in an appropriate volume to collect samples over a time course from 0 minutes through 6 hours. Incubating lysosomes were mixed well just prior to sampling to give a homogenous mixture. Aliquots of lysosomes were removed at appropriate time points, added to cold stopping solution, which was methanol containing an appropriate internal standard, and mixed rigorously. The samples were centrifuged at 4000 RPM for 10 minutes after which equal volumes of supernatant were diluted with cold deionized water. The samples were ready for analysis.
(§3) A Thermo LX-2 ultra-performance liquid chromatography system coupled with a Sciex API5000 triple quadrupole mass spectrometer was used for the analysis. The payload and drug-linkers were retained and separated by a C18 column and detected by the mass spectrometer. […] Samples were kept in cold stack set at 5° C.
Series [5] in a line: In vitro stability of drug-linkers in human whole blood (parent and released dexamethasone, LC-MS/MS).
Procedure: General Experimental Procedure Human Blood Incubation Human blood was collected the morning of the experiment from at least 3 individuals using K2EDTA as the anticoagulant. An equal volume from each individual was combined for use in the experiment. The experiment started no more than 2 hours after the blood collection. All drug-linker conjugates were solubilized in DMSO to form each 10 mM stock solution. Dosing solution for each linker was prepared by serial dilution of each stock solution using 1:3 acetonitrile:water. All solutions were kept on ice during the experiment.
Human blood was pre-warmed in a 37° C. water bath in an appropriate volume to collect samples over a time course from 0 through 6 hours. Incubating blood was mixed well just prior to sampling to give a homogenous mixture. Aliquots of blood were removed at appropriate time points, added to cold stopping solution, which was methanol containing an appropriate internal standard, and mixed rigorously. The samples were centrifuged at 4000 RPM for 10 minutes after which equal volumes of the supernatant fractions were diluted with cold deionized water. The samples were then ready for analysis.
as §3
Assay in series [6]: not given
The source holds these as a separate data set.

Read-outs that look alike come from different tables or passages of the source.

Consider `CCCC1O[C@@H]2C[C@H]3[C@@H]4CCC5=CC(=O)C=C[C@]5(C)[C@H]4[C@@H](O)C[C@]3(C)[C@]2(C(=O)CO)O1` (some centres unmarked) [Budesonide, budesonide], for which the Emax in series [1] is reported as 9.03; in series [2], 14.33; in series [3], 25.68. For the same compound, the values for the EC50 in series [1], in series [2] and in series [3] were 0.65 nM, 2.21 nM and 0.58 nM, respectively.
For the compound `C[C@@H]1C[C@H]2[C@@H]3CCC4=CC(=O)C=C[C@]4(C)[C@@]3(F)[C@@H](O)C[C@]2(C)[C@@]1(O)C(=O)CO` [Dexamethasone, dexamethasone, reference compound], the “Calculated Conc. for each compound in rat lysomal lysate” value is given as 1456.4 nM in series [4] (0 m, 37° C.); 1851.2 nM in series [4] (5 m, 37° C.); 1640.8 nM in series [4] (10 m, 37° C.); 1666.7 nM in series [4] (15 m, 37° C.); 1602.6 nM in series [4] (30 m, 37° C.); 1576.8 nM in series [4] (1 hr, 37° C.). Besides, the “Calculated Conc. for each compound in rat lysomal lysate” value in series [4] (2 hr, 37° C.) was 1681.0 nM; in series [4] (3 hr, 37° C.) it was 1689.7 nM; in series [4] (6 hr, 37° C.), 1689.8 nM; in series [4] (Matrix spiking (lysosomes pretreated with stopping reagent)), 2059.0 nM. Moreover, the “Calculated Conc. for each compound in human whole blood” value in series [5] (0 m, 37° C.) was 1687 nM; in series [5] (20 m, 37° C.), 2409 nM; in series [5] (1 hr, 37° C.), 2224 nM; in series [5] (3 hr, 37° C.), 1502 nM; in series [5] (6 hr, 37° C.) it was 2792 nM; in series [5] (Matrix spiking (time 0 sample, blood pretreated with stopping reagent)), 2939 nM.
With `C[C@@H]1C[C@H]2[C@@H]3CCC4=CC(=O)C=C[C@]4(C)[C@@]3(F)[C@@H](O)C[C@]2(C)[C@@]1(O)C(=O)COP(=O)(O)OCCNC(=O)COC1C#CCCCCC1` (stereo partly drawn) [Drug Linker 4-3, 2-(2-(cyclooct-2-yn-1-yloxy)acetamido)ethyl (2-((8S,9R,10S,11S,13S,14S,16R,17R)-9-fluoro-11,17-dihydroxy-10,13,16-trimethyl-3-oxo-6,7,8,9,10,11,12,13,14,15,16,17-dodecahydro-3H-cyclopenta[a]phenanthren-17-yl)-2-oxoethyl) hydrogen phosphate], the “rate of dexamethasone release in rat lysosomal extract (in words)” value in series [4] (compared with 3-4, 5-3 releasing faster than 4-3) is “more slowly released”. Also, the “Calculated Conc. for dexamethasone rat lysomeal lysate” value was 0.9 nM (0 min); 14.5 nM (5 min); 14.2 nM (10 min); 22.3 nM (15 min); 28.9 nM (30 min); 41.6 nM (1 h). For the same compound, the “Calculated Conc. for dexamethasone rat lysomeal lysate” value is 72.5 nM (2 h), 90.2 nM (3 h) and 141.9 nM (6 h). Further, the “Calculated Conc. for each compound in rat lysomal lysate” value by setting is: (0 min) 888.8 nM; (5 min) 1156.1 nM; (10 min) 983.4 nM; (15 min) 1032.6 nM; (30 min) 980.1 nM; (1 h) 882.4 nM. In addition, the “Calculated Conc. for each compound in rat lysomal lysate” value runs as follows: (2 h) 880.1 nM; (3 h) 903.8 nM; (6 h) 858.9 nM. For the same compound, the “Calculated Conc. for each compound in human whole blood” value in series [6] (0 min) is recorded as 1539 nM; in series [6] (20 min), 1861 nM; in series [6] (1 h), 1619 nM; in series [6] (3 h), 1677 nM; in series [6] (6 h), 2040 nM. For the same compound, the “Calculated Conc. for dexamethasone in human whole blood” value is reported as 0 nM in series [6] (20 min), 0 nM in series [6] (1 h), 1 nM in series [6] (3 h) and 3 nM in series [6] (6 h).
In the case of `CCC(=O)O[C@]1(C(=O)SCF)[C@H](C)C[C@H]2[C@@H]3C[C@H](F)C4=CC(=O)C=C[C@]4(C)[C@@]3(F)[C@@H](O)C[C@@]21C` [Fluticasone Propionate, fluticasone propionate], the Emax in series [1] is reported as 10.27; in series [2], 15.78; in series [3] it was 25.38. In addition, the EC50 in series [1] turned out to be 0.45 nM; in series [2], 0.52 nM; in series [3], 0.46 nM.
For “CD74 Ab: anti-CD74 antibody LL1, HC SEQ ID NO:69, LC SEQ ID NO:73, pAzF at position 121”, the Emax in series [1] was 1.34; in series [2] it was 1.02; in series [3], 1.02.

Broadly, the EC50 is the concentration at which the effect is half-maximal. High values mean weaker potency, low ones greater potency.
